{"source": "ChEMBL document CHEMBL1152231", "about": "“Discovery of small molecule agonists for the bombesin receptor subtype 3 (BRS-3) based on an omeprazole lead” (Bioorg Med Chem Lett, 2008)", "key": {"[1]": {"target": "T1, Bombesin receptor subtype-3 (Homo sapiens, UniProt P32247)", "T1 sequence (P32247 whole entry)": "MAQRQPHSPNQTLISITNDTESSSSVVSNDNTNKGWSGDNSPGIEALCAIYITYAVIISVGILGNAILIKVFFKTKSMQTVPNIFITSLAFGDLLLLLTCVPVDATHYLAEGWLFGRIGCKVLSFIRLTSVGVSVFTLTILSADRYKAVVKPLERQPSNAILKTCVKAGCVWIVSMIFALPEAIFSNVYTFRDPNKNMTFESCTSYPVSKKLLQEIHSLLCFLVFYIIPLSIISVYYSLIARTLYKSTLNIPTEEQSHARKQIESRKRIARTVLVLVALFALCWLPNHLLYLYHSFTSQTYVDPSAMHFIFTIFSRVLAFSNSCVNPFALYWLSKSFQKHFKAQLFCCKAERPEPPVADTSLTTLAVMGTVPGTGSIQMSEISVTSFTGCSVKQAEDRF", "assay": "Agonist activity at recombinant BRS-3 receptor expressed in baculovirus-transduced HEK293 cells assessed as intracellular calcium mobilization by FLIPR assay", "type": "functional"}, "Neuromedin-B receptor [2]": {"target": "T2, Neuromedin-B receptor (Homo sapiens, UniProt P28336)", "T2 sequence (P28336 whole entry)": "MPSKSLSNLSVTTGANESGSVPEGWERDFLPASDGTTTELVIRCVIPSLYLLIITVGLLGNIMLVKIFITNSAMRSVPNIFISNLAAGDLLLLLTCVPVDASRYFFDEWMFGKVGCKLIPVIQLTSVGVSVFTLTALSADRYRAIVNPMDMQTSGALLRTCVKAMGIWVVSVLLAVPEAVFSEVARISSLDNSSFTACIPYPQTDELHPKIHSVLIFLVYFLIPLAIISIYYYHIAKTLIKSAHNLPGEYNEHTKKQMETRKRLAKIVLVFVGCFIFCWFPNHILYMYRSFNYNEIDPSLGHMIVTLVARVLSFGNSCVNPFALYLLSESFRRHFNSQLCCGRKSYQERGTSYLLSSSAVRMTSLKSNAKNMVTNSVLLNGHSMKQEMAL", "assay": "Binding affinity to neuromedin B receptor"}, "[3]": {"target": "T3, Gastrin-releasing peptide receptor (Homo sapiens, UniProt P30550)", "T3 sequence (P30550 whole entry)": "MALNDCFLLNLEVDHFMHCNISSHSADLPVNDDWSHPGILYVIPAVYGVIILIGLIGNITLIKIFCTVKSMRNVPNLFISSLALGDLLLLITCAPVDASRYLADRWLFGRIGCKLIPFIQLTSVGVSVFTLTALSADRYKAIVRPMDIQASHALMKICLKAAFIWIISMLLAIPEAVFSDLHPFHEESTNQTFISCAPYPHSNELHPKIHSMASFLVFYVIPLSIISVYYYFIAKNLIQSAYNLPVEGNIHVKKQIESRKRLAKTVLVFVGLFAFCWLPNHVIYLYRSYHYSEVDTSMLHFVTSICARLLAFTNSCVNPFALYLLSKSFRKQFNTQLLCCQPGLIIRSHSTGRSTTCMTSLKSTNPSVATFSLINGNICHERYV", "assay": "Agonist activity at recombinant gastrin releasing peptide receptor expressed in baculovirus-transduced HEK293 cells assessed as intracellular calcium mobilization by FLIPR assay", "type": "functional"}, "Neuromedin-B receptor [4]": {"target": "T2, Neuromedin-B receptor", "assay": "Agonist activity at recombinant neuromedin B receptor expressed in baculovirus-transduced HEK293 cells assessed as intracellular calcium mobilization by FLIPR assay", "type": "functional"}, "[5]": {"target": "T3, Gastrin-releasing peptide receptor", "assay": "Binding affinity to gastrin releasing peptide receptor"}, "[6]": {"target": "T1, Bombesin receptor subtype-3", "assay": "Binding affinity to BRS-3 receptor"}, "[7]": {"target": "T4, Bombesin receptor subtype-3 (Homo sapiens) (UniProt P32247)", "T4 sequence (whole entry)": "T1 sequence (P32247 whole entry)", "assay": "Agonist activity at recombinant BRS-3 receptor expressed in baculovirus-transduced HEK293 cells assessed as maximum response of intracellular calcium mobilization by FLIPR assay relative to D-Phe-Gln-Trp-Ala-Val-beta-Ala-His-Phe-Nle-NH2", "type": "functional"}, "[8]": {"assay": "Half life in iv dosed rat", "type": "ADME, organism-based", "conditions": "in vivo"}, "[9]": {"assay": "Clearance in iv dosed rat", "type": "ADME, organism-based", "conditions": "in vivo"}, "[10]": {"assay": "Volume of distribution at steady state in iv dosed rat", "type": "ADME, organism-based", "conditions": "in vivo, read-out: Vdss"}}, "note": "Square brackets hold non-standard residues; d marks the D form. Peptide text beside a SMILES is read from it. Nle = CCCC[C@H](N)C(=O)O; βAla = NCCC(=O)O", "data": [{"smiles": "COc1ccc2nc(SCc3n[nH]c4ccccc34)[nH]c2c1", "values": [{"measurement": "EC50", "setting": "[1]", "result": "> 32000", "unit": "nM"}]}, {"smiles": "COc1ccc2nc(CCc3cc4c(cc3Cl)OCO4)sc2c1", "values": [{"measurement": "EC50", "setting": "[1]", "result": "> 32000", "unit": "nM"}]}, {"smiles": "COc1ccc2nc(SCc3ccc4ccccc4c3)[nH]c2c1", "values": [{"measurement": "EC50", "setting": "[1]", "result": "> 32000", "unit": "nM"}]}, {"smiles": "CCCC[C@H](NC(=O)[C@H](Cc1ccccc1)NC(=O)[C@H](Cc1c[nH]cn1)NC(=O)CCNC(=O)[C@@H](NC(=O)[C@H](C)NC(=O)[C@H](Cc1c[nH]c2ccccc12)NC(=O)[C@H](CCC(N)=O)NC(=O)[C@H](N)Cc1ccccc1)C(C)C)C(N)=O", "note": "(H-[dF]QWAV[βAla]HF[Nle]-NH2)", "values": [{"measurement": "Ki", "setting": "Neuromedin-B receptor [2]", "result": 8.9, "unit": "nM"}, {"measurement": "EC50", "setting": "[3]", "result": 0.06, "unit": "nM"}, {"measurement": "EC50", "setting": "Neuromedin-B receptor [4]", "result": 0.55, "unit": "nM"}, {"measurement": "EC50", "setting": "[1]", "result": 3.9, "unit": "nM"}, {"measurement": "Ki", "setting": "[5]", "result": 0.99, "unit": "nM"}, {"measurement": "Ki", "setting": "[6]", "result": 0.36, "unit": "nM"}]}, {"smiles": "COc1ccc2[nH]c([S+]([O-])Cc3ncc(C)c(OC)c3C)nc2c1", "note": "(stereo not given) [OMEPRAZOLE]", "values": [{"measurement": "%max", "setting": "[7]", "result": 27, "unit": "%"}, {"measurement": "EC50", "setting": "[1]", "result": 14000, "unit": "nM"}]}, {"smiles": "COc1ccc2nc(/C=C/c3cc4c(cc3Cl)OCO4)[nH]c2c1", "values": [{"measurement": "EC50", "setting": "[1]", "result": "> 32000", "unit": "nM"}]}, {"smiles": "Clc1ccc2nc(COc3cc4c(cc3Cl)OCO4)[nH]c2c1", "values": [{"measurement": "%max", "setting": "[7]", "result": 59, "unit": "%"}, {"measurement": "EC50", "setting": "[1]", "result": 570, "unit": "nM"}]}, {"smiles": "COc1ccc2nc(SCc3ccncc3)[nH]c2c1", "values": [{"measurement": "EC50", "setting": "[1]", "result": "> 32000", "unit": "nM"}]}, {"smiles": "COc1ccc2sc(CCc3cc4c(cc3Cl)OCO4)nc2c1", "values": [{"measurement": "EC50", "setting": "[1]", "result": "> 32000", "unit": "nM"}]}, {"smiles": "COc1ccc2nc(SCc3ccc(F)c(F)c3)[nH]c2c1", "values": [{"measurement": "EC50", "setting": "[1]", "result": "> 32000", "unit": "nM"}]}, {"smiles": "COc1ccc2[nH]c(SCc3ncc(C)c(OC)c3C)nc2c1", "note": "[UFIPRAZOLE]", "values": [{"measurement": "%max", "setting": "[7]", "result": 64, "unit": "%"}, {"measurement": "EC50", "setting": "[1]", "result": 3900, "unit": "nM"}]}, {"smiles": "COc1ccc2nc(NCc3cc4c(cc3Cl)OCO4)[nH]c2c1", "values": [{"measurement": "EC50", "setting": "[1]", "result": "> 32000", "unit": "nM"}]}, {"smiles": "COc1ccc2nc(CCc3cc4c(cc3Cl)OCO4)oc2c1", "values": [{"measurement": "EC50", "setting": "[1]", "result": "> 32000", "unit": "nM"}]}, {"smiles": "COc1ccc2nc(COc3cc4c(cc3Cl)OCO4)[nH]c2c1", "values": [{"measurement": "%max", "setting": "[7]", "result": 71, "unit": "%"}, {"measurement": "half-life", "setting": "[8]", "result": 30, "unit": "min"}, {"measurement": "EC50", "setting": "[1]", "result": 510, "unit": "nM"}, {"measurement": "clearance", "setting": "[9]", "result": 61, "unit": "mL/min/kg"}, {"measurement": "Vd", "setting": "[10]", "result": 1.2, "unit": "L/kg"}]}, {"smiles": "Cc1cc2nc(COc3cc4c(cc3Cl)OCO4)[nH]c2cc1Cl", "values": [{"measurement": "EC50", "setting": "[1]", "result": "> 32000", "unit": "nM"}]}, {"smiles": "Clc1cc2c(cc1OCc1nc3ccc(Oc4ccccc4)cc3[nH]1)OCO2", "values": [{"measurement": "EC50", "setting": "[1]", "result": "> 32000", "unit": "nM"}]}, {"smiles": "COc1ccc2oc(CCc3cc4c(cc3Cl)OCO4)nc2c1", "values": [{"measurement": "EC50", "setting": "[1]", "result": "> 32000", "unit": "nM"}]}, {"smiles": "COc1ccc2nc(NC(=O)c3cc4c(cc3Cl)OCO4)[nH]c2c1", "values": [{"measurement": "EC50", "setting": "[1]", "result": "> 32000", "unit": "nM"}]}, {"smiles": "COc1ccc2nc(CCc3cc4c(cc3Cl)OCO4)[nH]c2c1", "values": [{"measurement": "%max", "setting": "[7]", "result": 82, "unit": "%"}, {"measurement": "EC50", "setting": "[1]", "result": 210, "unit": "nM"}]}, {"smiles": "COc1ccc2nc(SCc3cc4c(cc3Cl)OCO4)[nH]c2c1", "values": [{"measurement": "%max", "setting": "[7]", "result": 67, "unit": "%"}, {"measurement": "EC50", "setting": "[1]", "result": 380, "unit": "nM"}]}, {"smiles": "COc1cc(CSc2nc3ccc(OC)cc3[nH]2)cc(OC)c1", "values": [{"measurement": "%max", "setting": "[7]", "result": 68, "unit": "%"}, {"measurement": "EC50", "setting": "[1]", "result": 1600, "unit": "nM"}]}, {"smiles": "COc1ccc2nc(C(C)Cc3cc4c(cc3Cl)OCO4)[nH]c2c1", "note": "(stereo not given)", "values": [{"measurement": "%max", "setting": "[7]", "result": 83, "unit": "%"}, {"measurement": "EC50", "setting": "[1]", "result": 350, "unit": "nM"}]}, {"smiles": "FC(F)(F)c1ccc2nc(COc3cc4c(cc3Cl)OCO4)[nH]c2c1", "values": [{"measurement": "%max", "setting": "[7]", "result": 69, "unit": "%"}, {"measurement": "EC50", "setting": "[1]", "result": 240, "unit": "nM"}]}]}
